# Experimental data: US7189849B2, “Synthesis of acyclic nucleoside derivatives” (Medivir AB, priority 1997, dated 2007)
# Columns and labels:
# [1] = Bioavailability testing in rats (24 h urinary H2G recovery); format: in vivo
# Procedure: The bioavailability of compounds of the invention were compared to the parent compound H2G and other H2G derivatives in a rat model. Compounds of the invention and comparative compounds were administered, per oral (by catheter into the stomach), to multiples of three individually weighed animals to give 0.1 mmol/kg of the dissolved prodrug in an aqueous (Example 4, 5, Comparative example 1–3, 5, 8), peanut oil (Comparative examples 4, 9, 10) or propylene glycol (Example 1–3, 6–12, 17, Comparative example 6, 7) vehicle dependent on the solubility of the test compound ingredient. The animals were fasted from 5 hours before to approximately 17 hours after administration and were maintained in metabolic cages. Urine was collected for the 24 hours following administration and frozen until analysis. H2G was analysed in the urine using the HPLC/UV assay of Stahle & Oberg, Antimicrob Agents Chemother. 36 No 2, 339–342 (1992), modified as follows: samples upon thawing are diluted 1:100 in aq dist H2O and filtered through an amicon filter with centrifugation at 3000 rpm for 10 minutes. Duplicate 30 μl samples are chromatographed on an HPLC column; Zorbax SB-C18; 75×4.6 mm; 3.5 micron; Mobile phase 0.05M NH4PO4, 3–4% methanol, pH 3.3–3.5; 0.5 ml/min; 254 nm, retention time for H2G at MeOH 4% and pH 3.33, ˜12.5 min. Bioavailability is calculated as the measured H2G recovery from each animal averaged over at least three animals and expressed as a percentage of the averaged 24 hour urinary H2G recovery from a group of 4 individually weighed rats respectively injected i.v. jugularis with 0.1 mmol/kg H2G in a Ringer's buffer vehicle and analysed as above.
# Comparative example 1 (H2G) was from the same batch as used for preparation of Examples 1 to 12. The preparation of Comparative example 2 (monoVal-H2G) and 3 (diVal-H2G) are shown in Examples 20 and 23. […] Comparative examples 5 & 8 (Val/Ac H2G) were prepared analogously to Example 4 using acetic anhydride with relevant monovaline H2G. Comparative example 6 (Ala/stearoyl H2G) was prepared analogously to Example 6 using N-t-Boc-L-alanine in step 4. Comparative example 7 (Gly/decanoyl) was prepared analogously to Example 5 but using the step a) intermediate made with N-t-Boc-L-glycine. The preparation of Comparative examples 9 and 10 is shown in Examples 24 and 25 respectively.
# [2] = Plasma concentration assay in rats (H2G AUC oral vs i.v.); format: in vivo, male Sprague Dawley derived rats; settings: Table 1B; plasma drug assay in rats, 10 mg/kg oral in propylene glycol, H2G AUC vs 10 mg/kg i.v. H2G
# Procedure: A plasma concentration assay was done in male Sprague Dawley derived rats. The animals were fasted overnight prior to dosing but were permitted free access to water. Each of the compounds evaluated was prepared as a solution/suspension in propylene glycol at a concentration corresponding to 10 mg H2G/ml and shaken at room temperature for eight hours. Groups of rats (at least 4 rats in each group) received a 10 mg/kg (1 ml/kg) oral dose of each of the compounds; the dose was administered by gavage. At selected time points after dosing (0.25, 0.5, 1, 1.5, 2, 4, 6, 9, 12, 15, and 24 hours after dosing), heparinized blood samples (0.4 ml/sample) were obtained from a tail vein of each animal. The blood samples were immediately chilled in an ice bath. Within two hours of collection, the plasma was separated from the red cells by centrifugation and frozen till analysis. The components of interest were separated from the plasma proteins using acetonitrile precipitation. Following lyophilisation, and reconstitution, the plasma concentrations were determined by reverse phase HPLC with fluorescence detection. The oral uptake of H2G and other test compounds was determined by comparison of the H2G area under the curve derived from the oral dose compared to that obtained from a 10 mg/kg intravenous dose of H2G, administered to a separate group of rats. The results are depicted in Table 1B above.
# [3] = tested on: Herpes simplex virus-1 (HSV-1); assay: Antiviral activity in HSV-1-infected mouse (survival); format: in vivo, mice; settings: 21 and 83 mg/kg three times daily p.o. for 5 days, relative to an equivalent dose of acyclovir
# Procedure: Herpes simplex virus-1 (HSV-1)-infected mouse serves as an animal model to determine the efficacy of antiviral agents in vivo. Mice inoculated intraperitoneally with HSV-1 at 1000 times the LD50 were administered either with a formulation comprising the currently marketed anti-herpes agent acyclovir (21 and 83 mg/kg in a 2% propylene glycol in sterile water vehicle, three times daily, p.o.) or the compound of Example 29 (21 and 83 mg/kg in a 2% propylene glycol in sterile water vehicle, three times daily, p.o.) for 5 consecutive days beginning 5 hours after inoculation. The animals were assessed daily for deaths. […] In the legend, the compound of the invention is denoted Ex.29 and acyclovir is denoted ACV.
# [4] = Table 2, rats, 0.1 mmol/kg per oral, 24 hour urinary H2G recovery as percentage of that after 0.1 mmol/kg H2G i.v.
SMILES,"Bioavailability [1, 4] [%]","Bioavailability ([1]; Table 1A, urinary recovery assay of H2G from rats, oral, see Biological Example 1) [%]",Bioavailability [2] [%],percentage of mice surviving the HSV-1 infection (FIG. 2) [3]
CCCCCCCCCCCCCCCCCC(=O)OCC[C@@H](CO)Cn1cnc2c(=O)[nH]c(N)nc21 [Comparative Example 10],7,,,
CC(=O)CCCC(=O)OC[C@H](CCOC(=O)[C@@H](N)C(C)C)Cn1cnc2c(=O)[nH]c(N)nc21 [Example 10],52,,,
"Nc1nc2c(ncn2CC(CO)CCO)c(=O)[nH]1 (stereo not shown) [Comparative example 1, 9-[4-hydroxy-(2-hydroxymethyl)butyl]guanine, reference compound]",8,8,3.8,
"CCCCCCCCCCCCCCCCCC(=O)OC[C@H](CCOC(=O)[C@@H](N)C(C)C)Cn1cnc2c(=O)[nH]c(N)nc21.Cl [Example 29, (R)-9-[(2-stearoyloxymethyl)-4-(L-valyloxy)butyl]guanine monohydrochloride]",,,,significantly greater
CCCCCCCCCCCCCCCCCC(=O)OC[C@H](CCOC(=O)[C@@H](N)[C@@H](C)CC)Cn1cnc2c(=O)[nH]c(N)nc21 [Example 7],53,,,
